Test results reported in article PMC4931907 (eLife, 2016).

Columns and labels:
p300 [1] = target: T1, p300 (Homo sapiens, UniProt Q09472); assay: In vitro HAT assay with recombinant p300, histones and 14C acetyl-CoA; format: biochemical; conditions: for IC50: in vitro HAT assay, recombinant p300 and histones, read-out: IC50, p300 acetyltransferase activity; for Inhibition of p300 acetyltransferase in vitro: data not shown
T1 construct: in vitro acetylation assays with purified histones and a recombinant p300 catalytic domain; purchased Enzo Life Sciences
T1 sequence (Q09472 1287-1663 limits assumed): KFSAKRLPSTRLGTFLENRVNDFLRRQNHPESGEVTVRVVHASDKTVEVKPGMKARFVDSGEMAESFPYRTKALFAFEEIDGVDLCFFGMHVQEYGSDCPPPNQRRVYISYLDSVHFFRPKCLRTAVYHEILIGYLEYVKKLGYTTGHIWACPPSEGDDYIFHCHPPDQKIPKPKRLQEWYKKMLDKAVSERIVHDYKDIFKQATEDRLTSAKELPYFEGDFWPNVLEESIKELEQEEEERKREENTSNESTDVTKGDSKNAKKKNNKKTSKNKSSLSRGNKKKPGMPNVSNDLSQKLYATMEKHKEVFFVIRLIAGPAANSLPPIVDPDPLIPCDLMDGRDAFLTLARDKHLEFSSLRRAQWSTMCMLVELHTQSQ
Description: To determine whether salicylate inhibits p300 and other acetyltransferases, we used in vitro acetylation assays with purified histones and a recombinant p300 catalytic domain.
(§1) Figure 1. Salicylate inhibits CBP/p300 in vitro. (A) Recombinant p300, CBP, GCN5, or PCAF and histones were incubated with ^14C-labeled acetyl-CoA with or without sodium salicylate, separated by SDS-PAGE, analyzed by autoradiography, and quantified with Image J software. Acetylation levels are relative to those in untreated controls. (B) Thermal stability assay for sodium salicylate binding to the p300 HAT domain. Tm, melting temperature. (C) and (D) Lineweaver-Burk plots showing kinetic analysis of p300 acetyltransferase inhibition by sodium salicylate. Histone acetylation was measured with several concentrations of acetyl-CoA (C) or histone (D) in the presence or absence of sodium salicylate. DOI: http://dx.doi.org/10.7554/eLife.11156.003 Figure 1—figure supplement 1. […] (A) Dose-response data for inhibition of p300 by salicylate and salicyl-CoA. Acetylation of an H4(3–14) peptide was monitored using direct microfluidic mobility shift analysis as previously described ([Montgomery et al., 2014]; [Fanslau et al., 2010]). Error is given as the 95% confidence interval. […] Error is given as the 95% confidence interval. DOI: http://dx.doi.org/10.7554/eLife.11156.004 [drawing 1] TEXT PRINTED IN THE PICTURE: (A) Salicylate: p300 IC50 (mM): 6.12; Confidence Interval [CI95] (mM): 5.2–7.2 | (A) Salicyl-CoA: p300 IC50 (mM): […]; Confidence Interval [CI95] […] (mM): 0.78–1.4 | (B) Diflunisal-CoA: p300 IC50 (mM): 0.02; Confidence Interval [CI95] (mM): 0.02–0.03
Recombinant HAT ([…]), either p300, CBP, PCAF, or GCN5 (Enzo Life Sciences), and 10 µg of histones (Sigma) were incubated with sodium salicylate (Sigma) in reaction buffer (50 mM HEPES, pH 8.0, 10% glycerol, 1 mM) at 30°C for 30 min and then with 0.1 mCi of ^14C acetyl-CoA at 30°C for 60 min. Reactions were stopped by adding 6x sample buffer and analyzed by SDS-PAGE. The gels were dried, and signals were obtained by autoradiography and quantified with Image J software. To quantify acetylated histone levels, we generated a standard curve from signals of lanes loaded with […] of ^14C labeled histones.

p300 [2] = target: T1, p300; assay: p300 inhibition by direct microfluidic mobility shift analysis, H4(3–14) peptide; format: biochemical; conditions: for IC50: microfluidic mobility shift, H4(3–14) peptide, 5 μM acetyl-CoA; for Fold increased potency of CoA metabolite in comparison with parent drug: ratio of p300 IC50 values
Description: as §1
Salicyl-CoA and diflunisal-CoA were synthesized from their parent carboxylic acids and HPLC purified according to previously reported methods ([Padmakumar et al., 1997]). The purity of each acyl-CoA was confirmed by analytical HPLC prior immediately prior to utilization ([Montgomery et al., 2014]; [Fanslau et al., 2010]). P300 inhibition assays were performed using direct microfluidic mobility shift analysis as previously described. Briefly, p300 reaction mixture (50 mM HEPES, pH 7.5, 50 mM NaCl, 2 mM EDTA, 2 mM DTT, 0.05% Triton-X-100, 50 nM p300, 2 μM FITC-histone H4 peptide) was plated in 384-well plates and allowed to equilibrate at room temperature for 10 min. Reactions were initiated by addition of acetyl-CoA (final concentration = 5 μM), bringing the final assay volume to 30 μL. Assays were quenched after 10 min (<15% product accumulation) by addition of 5 μL of 0.5 M neutral hydroxylamine and transferred to a Perkin-Elmer Lab-Chip EZ-Reader instrument for analysis. Separation conditions were: downstream voltage of −500 V, upstream voltage of −2500 V, and a pressure of −1.5 psi. Percent conversion was calculated by ratiometric measurement of substrate/product peak heights. Percent activity represents the percent conversion of KAT reactions treated with inhibitors relative to untreated control KAT reactions, and corrected for nonenzymatic acetylation. Dose-response analysis of p300 inhibition was performed in triplicate and analyzed by nonlinear least-squares regression fit to Y = 100/(1 + 10∧(Log IC50 – X)*H), where H = Hill slope (variable). IC50 values represent the concentration that inhibits 50% of KAT activity. Calculations were performed using Prism 6 (GraphPad) software.

Q: With `Nc1ccc(C(=O)O)c(O)c1` [4-Amino- Salicylic Acid, 4-aminosalicylic acid] as the molecule, how does the IC50 (p300 [1]) read?
A: 12400 µM

Q: For `Nc1ccc(O)c(C(=O)O)c1` [5-Amino- Salicylic Acid, 5-aminosalicylic acid], which IC50 (p300 [1]) is on record?
A: 7600 µM

Q: Which IC50 (p300 [1]) does the source give for `CC(=O)Oc1ccccc1C(=O)O` [Acetyl- Salicylic Acid, acetylsalicylic acid] here?
A: 14200 µM

Q: With `CC(=O)Nc1ccc(O)cc1` [acetaminophen] as the molecule, how does the “Inhibition of p300 acetyltransferase in vitro” value (p300 [1]) read?
A: did not detect any inhibitory activity

Q: How did the IC50 (p300 [2]) turn out when `CC(C)(COP(=O)(O)OP(=O)(O)OCC1OC(n2cnc3c(N)ncnc32)C(O)C1OP(=O)(O)O)C(O)C(=O)NCCC(=O)NCCSC(=O)c1cc(-c2ccc(F)cc2F)ccc1O` (centres unmarked) [diflunisal-CoA] was run?
A: 20 µM

Q: And the “Fold increased potency of CoA metabolite in comparison with parent drug” value (p300 [2])?
A: 52 fold

Q: `COc1ccc2c(c1)c(CC(=O)O)c(C)n2C(=O)c1ccc(Cl)cc1` [indomethacin] was tested. Which “Inhibition of p300 acetyltransferase in vitro” value (p300 [1]) did it give?
A: did not detect any inhibitory activity

Q: How did the IC50 (p300 [1]) turn out when `COc1c(C)c2c(c(O)c1C/C=C(\C)CCC(=O)O)C(=O)OC2` [mycophenolic acid] was run?
A: 664 µM

Q: With `CCOc1cc(CC(=O)N[C@@H](CC(C)C)c2ccccc2N2CCCCC2)ccc1C(=O)O` [repaglinide] as the molecule, how does the IC50 (p300 [1]) read?
A: 374 µM

Q: What does the source list for `CC(C)(COP(=O)(O)OP(=O)(O)OC[C@H]1O[C@@H](n2cnc3c(N)ncnc32)[C@H](O)[C@@H]1OP(=O)(O)O)[C@@H](O)C(=O)NCCC(=O)NCCSC(=O)c1ccccc1O` [salicyl-CoA]?
A: IC50 (p300 [2]): 220 µM; Fold increased potency of CoA metabolite in comparison with parent drug (p300 [2]): 28 fold
